Measurements as given in US12208092B2, “Compositions and methods for administering paltusotine to patients with hepatic impairment” (CRINETICS PHARMACEUTICALS, INC., priority 2023, dated 2025).

How the values were obtained:
IGF-1 = experiment: suppression of IGF-1 in Beagle dogs, 7 days oral; assay type: in vivo
[1] = Phase 1 mass balance (ADME) study, single oral 20 mg [14C]-paltusotine, healthy male volunteers; assay type: in vivo, human
Method: This was a Phase I, open-label, single-dose study with a primary objective to characterize the absorption, distribution, metabolism, excretion, and mass balance of a single oral dose of 20 mg paltusotine containing 3.0 MBq (80 μCi) of [^14C]-labeled paltusotine in healthy male subjects.
Subjects received a single oral dose of 20 mg paltusotine as an oral solution containing 3.0 MBq (80 μCi) of radioactivity on Day 1. For oral dosing, the total volume ingested by the subject, including the study drug (10 mL), the rinse solutions (a total of 100 mL; 2 drug vial rinses with 50 mL of water per rinse), and tap water (130 mL), was 240 mL. The subjects had to ingest all solutions in the upright position within 2 minutes between 8 AM and 11 AM after an overnight fast of at least 10 hours. Fasting continued for a period of 4 hours after oral drug administration. The time of oral dosing administration was recorded, and the empty study drug vials were measured for residual radioactivity.
Blood samples were taken for the analysis of unlabeled paltusotine and [^14C]-paltusotine concentrations, and metabolite profiling. Blood samples for analysis of pharmacokinetic parameters of paltusotine in plasma, quantification of total radioactivity in blood and plasma, and metabolite profiling were collected at predose and 0.25, 0.5, 0.75, 1, 1.5, 2, 3, 4, 8, 12, 24, 48, 72, 120, and 168 hours postdose (and every 48 hours thereafter, if needed, to assess radioactivity).
Urine was collected for the analysis of total radioactivity, for quick counts of total radioactivity, and for metabolite profiling. The subjects were instructed to urinate completely before study drug administration and at the end of each collection interval. A baseline urine sample was collected within 12 hours prior to each study drug administration. Urine was collected for quantification of total radioactivity and metabolite profiling at predose, 3 intervals on Day 1 (at 0-4, 4-8, and 8-24 hours postdose), and every 24 hours thereafter until discharge criteria were met.
All fecal excretions were collected for the analysis of total radioactivity, for quick counts of total radioactivity, and for metabolite profiling. A baseline fecal sample was collected within 48 hours prior to study drug administration and could be collected at home. The baseline sample was taken from the last bowel movement before study drug intake. Feces were collected for quantification of total radioactivity and metabolite profiling at predose and in 24-hour intervals until discharge criteria were met.
Analysis of paltusotine in plasma was performed by Q2 Solutions (IQVIA, Itaca, NY, USA) using a validated liquid chromatography-tandem mass spectrometry (LC-MS/MS) method. The lower limit of quantitation (LLOQ) for paltusotine in plasma was 0.5 ng/mL.
Analysis of total ^14C radioactivity in plasma, whole blood, urine, and feces was performed at the bioanalytic laboratory of PRA Heath Sciences via a validated liquid scintillation counting method. The LLOQ for total reactivity was 3.36 ng-eq/mL in plasma and 5.6 ng-eq/mL in whole blood.
Metabolite profiling of plasma, urine, and feces was performed at WuXi AppTec (Cranbury, NJ, USA). For plasma, samples were pooled by timepoint (0.5, 1, 1.5, 2, 4, 8, 12, and 24 hours postdose) for metabolite profiling. In addition, plasma samples were pooled by participant across timepoints (0-48 hours) using the Hamilton method and analyzed to determine the quantitative profile of radiolabeled components. Prior to radio-profiling, plasma samples were extracted using solid phase extraction.
For urine and feces, samples were pooled by timepoint (0-8, 8-24, and 24-72 hours postdose). Prior to radio-profiling, urine samples were centrifuged to remove solids, and fecal homogenates were extracted with acetonitrile. Plasma and fecal extracts and urine supernatants were subjected to LC separation and fraction collection. […]

[2] = target: human somatostatin receptor 2 (SST2) (Homo sapiens, UniProt P30874); conditions: read-out: EC50, inhibition of cAMP accumulation via SST2 activation; average, in vitro
human somatostatin receptor 2 (SST2), sequence (P30874 whole entry): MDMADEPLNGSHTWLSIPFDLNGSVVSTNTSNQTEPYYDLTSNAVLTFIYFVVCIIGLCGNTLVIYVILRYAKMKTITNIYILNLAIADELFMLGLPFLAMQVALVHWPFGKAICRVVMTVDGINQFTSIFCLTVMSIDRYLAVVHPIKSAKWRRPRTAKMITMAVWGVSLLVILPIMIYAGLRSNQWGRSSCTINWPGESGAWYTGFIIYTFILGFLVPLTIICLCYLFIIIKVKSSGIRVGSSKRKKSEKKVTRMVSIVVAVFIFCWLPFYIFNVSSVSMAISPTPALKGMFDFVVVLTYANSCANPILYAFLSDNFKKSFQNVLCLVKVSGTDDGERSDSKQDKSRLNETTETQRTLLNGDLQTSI

[3] = scaled from paltusotine and excretory metabolites

N#Cc1cccc(-c2ccc3ncc(-c4cc(F)cc(F)c4)c(N4CCC(N)CC4)c3c2)c1O [paltusotine, 3-[4-(4-amino-1-piperidyl)-3-(3,5-difluorophenyl)-6-quinolyl]-2-hydroxybenzonitrile]
oral doses with sustained suppression of IGF-1 (IGF-1): ≥ 6 mg/kg/day | component in feces ([1]; feces): 39.7 % of the dose | drug-related components detected in plasma ([1]; human plasma 0-48 h): the only drug-related component detected in human plasma (0-48 h) was paltusotine | administered radioactivity recovered in the feces ([1]; human, in vivo): 90% | administered radioactivity recovered in the urine ([1]; human, in vivo): 3.9% | dose excreted in the feces by metabolic profiling of excreta ([1]; human, in vivo): approximately 84% | total radioactivity excreted over 120 h ([1]; human, in vivo): 88 % of the administered dose | glucuronidation pathway share of metabolic clearance [1, 3]: 27.9 % of the dose | oxidative route share of metabolic clearance [1, 3]: 14.3% | component in urine ([1]; urine): 1.33 % of dose | unchanged paltusotine and metabolites excreted in urine ([1]; urine): < 4 % of the total administered radioactivity | total mean recovery of administered radioactivity ([1]; urine and feces): 94% | EC50 [2]: 0.25 nM
